These results are taken from patent US6774143B1, “Method for treating cells resistant to antineoplastic agents” (Novartis AG, priority 2003, dated 2004).

Test [1] has as its system 1A9 cell line. Put plainly: In vivo hollow fiber assay in nude mice. How it is done:
(§1) PVDF hollow fibers (Spectrum, Gardena, Calif.) are soaked in 70% EtOH for 72 hours before use. After this step, all handling of fibers are done under a biological laminar flow hood using aseptic procedures. Individual fibers are flushed with 3 mL of the ice-cold tissue culture media using a syringe equipped with a 20-gauge needle. Next, each fiber is filled with an appropriate cell suspension (1×10^6 cells/mL for the 1A9 and 1A9PTX22 cells, and 0.5×10^6 cells/mL for the LS 174T cells), and both ends of the fiber are sealed with a hot flat needle holder. The entire length of the fiber is then sealed into 1.5 cm microcapsules (further called “hollow fibers”), each containing approximately 15 uL of the appropriate cell suspension. After separation, individual hollow fibers are placed in 6 well plates (6 fibers in 5 mL media per well), and are incubated overnight at 37° C. in the tissue culture incubator.
(§2) Outbred athymic (nu/nu) female mice (“Chrls:Athymic Nude-nu”, Charles River Laboratories, Wilmington, Mass.) are anesthetized with ip injections of Ketamine/Xylazine (150 mg/kg, and 12 mg/kg body weight, respectively). For the subcutaneous implantation an 11-gauge trocar containing one or two hollow fibers is inserted into an incision made with scissors at the nape of the neck of an animal, and fibers are released by retracting the trocar while depressing the plunger. This procedure is repeated until all three hollow fibers are implanted. One wound clip is used to close the skin incision After the surgery each animal receives a single, subcutaneous injection of 0.4 mg/kg butorphenol to relieve any potential pain. Animals recover from the anesthesia on a heating pad, before retuning to their cages.
(§3) One day after the implantation (3 hollow fibers/animal, each hollow fiber containing one cell line: LS 174T, 1A9, and 1A9PTX22) animals are randomly sorted into five groups of six mice/group. The first group is sacrificed; hollow fibers are retrieved, and processed according to a published procedure (Hollingshead M G, et al. Life Sciences 1995, 57(2):131-141), to determine the number of viable cells in each fiber (T0.)
(§4) On day 6 all animals are sacrificed, and hollow fibers are retrieved, and processed according to Hollingshead, M G, (supra) to determine the number of viable cells in each fiber (T—for fibers from animals treated with experimental compounds, C—for fibers from animals treated with corresponding vehicles). Antitumor activity is expressed as % Mean ΔT/Mean ΔC [comparing cell growth for treatment group to vehicle control group, where % Mean ΔT/Mean ΔC=(Mean T—Mean T0/Mean C—Mean T0)×100%]. Regressions are calculated using the formula: (1−Mean T/Mean T0)×100%. Statistical significance of the results is uniformly evaluated using a two-tailed Student's t-test.
(§5) Discodermolide is isolated from the sponge Discodermia dissoluta using the method of Gunasekera SP (supra). Multiple batches of compound of similar purity (all>95% pure, as determined by mass spectrometry, and nuclear magnetic resonance analysis) are used throughout the various studies. For the in vitro cytotoxicity assays all compounds are dissolved in DMSO and are added to the plates with cells to obtain desired concentrations. […] Paclitaxel is purchased from Sigma/Aldrich, (St. Louis, Mo.). For the in vivo hollow fiber assay, solid discodermolide is dissolved in pure ethanol to create a stock solution which is diluted just before dosing with Cremophor EL and D5W to a final concentration of 16.7% Cremophor EL, 8.3% ethanol and 75% D5W. The compound is administered to mice as a single, 15 mg/kg iv injection. Positive control animals receive clinical formulations of paclitaxel (TAXOL) diluted 4-fold with D5W (12.5% Cremophor El, 12.5% ethanol and 75% D5W final concentrations) and administered iv, at 15 mg/kg, once daily for five consecutive days. Vehicle controls are administered according to the corresponding drug schedules.

Test [2] concerns 1A9PTX22 cell line. Nature of the test: In vivo hollow fiber assay in nude mice. How it is done:
as §1, §2, §3, §4, §5

Setting [3] is: first experiment, discodermolide single 15 mg/kg iv.
Setting [4] is: second experiment, discodermolide single 15 mg/kg iv.
[5] abbreviates: first experiment, paclitaxel iv 15 mg/kg once daily for 5 days.
[6] abbreviates: second experiment, paclitaxel iv 15 mg/kg once daily for 5 days.

As for `C=C/C=C\[C@H](C)[C@H](OC(N)=O)[C@@H](C)[C@H](O)[C@@H](C)C/C(C)=C\[C@H](C)[C@@H](O)[C@@H](C)/C=C\[C@@H](O)C[C@@H]1OC(=O)[C@H](C)[C@@H](O)[C@H]1C` [discodermolide, (+)-Discodermolide], the T/C is on record as 8% in test [1] (setting [3]), 14% in test [1] (setting [4]), −13% in test [2] (setting [3]) and 13% in test [2] (setting [4]). The compound also returned a regression in test [2] (first study, discodermolide single 15 mg/kg iv, p<0.01) of 13%.
For `CC(=O)O[C@H]1C(=O)[C@@]2(C)[C@H]([C@H](OC(=O)c3ccccc3)[C@]3(O)C[C@H](OC(=O)[C@H](O)[C@@H](NC(=O)c4ccccc4)c4ccccc4)C(C)=C1C3(C)C)[C@]1(OC(C)=O)CO[C@@H]1C[C@@H]2O` [paclitaxel, reference compound], the T/C was −8% in test [1] (setting [5]), 2% in test [1] (setting [6]), 79% in test [2] (setting [5]) and 90% in test [2] (setting [6]).
